Experimental data: patent US12447147B2, “Methods of treating, ameliorating, and/or preventing cancer using pyrvinium compositions” (Thomas Jefferson University, priority 2019, dated 2025)
Read-outs that look alike come from different tables or passages of the source.

Experiments:
VEGF DNA binding to HuR = VEGF DNA binding to HuR (Homo sapiens, UniProt Q15717); assay: Inhibition of VEGF DNA binding to HuR; conditions: for Mean Max % I: mean of n1 and n2; for Max % I, n1: replicate n1; for Max % I, n2: replicate n2
COX2 DNA binding to HuR = COX2 DNA binding to HuR (Homo sapiens, UniProt Q15717); assay: Inhibition of COX2 DNA binding to HuR; conditions: for Mean Max % I: mean of n1 and n2; for Max % I, n1: replicate n1; for Max % I, n2: replicate n2
[1] = molecular target: HuR binding to target mRNA VEGF (Homo sapiens, UniProt Q15717); assay: Inhibition of HuR binding to target mRNA VEGF; conditions: given as a range
[2] = molecular target: HuR binding to target mRNA COX2 (Homo sapiens, UniProt Q15717); assay: Inhibition of HuR binding to target mRNA COX2; conditions: given as a range
HS766T = assay: 5 day viability assay (Pico Green), HS766T; format: cell-based; conditions: 120 h
Description: (§1) The efficacy of pyrvinium pamoate was determined in a panel of PDA cell lines.

MIA-PaCa2 = assay: 5 day viability assay (Pico Green), MIA-PaCa2; format: cell-based; conditions: Homo sapiens, MIA PaCa-2, 120 h
Description: as §1

Panc-1 = assay: 5 day viability assay (Pico Green), Panc-1; format: cell-based; conditions: Homo sapiens, 120 h
Description: as §1

CFPAC = assay: 5 day viability assay (Pico Green), CFPAC; format: cell-based; conditions: 120 h
Description: as §1

PDX-X139 = assay: 5 day viability assay (Pico Green), PDX cell line; format: cell-based; conditions: 120 h
Excerpt: (§2) KPC mice have both an activating KRAS mutation (KRAS is mutated in up to 90% of PDA) and a loss of P53 driven by a pancreas specific Cre promoter. The KTC organoid model is derived from a GEMM that has a driver KRAS mutation and greater than 2-fold overexpression of HuR, specifically in the pancreas.

KTC Organoids = assay: 5 day viability assay (Pico Green), KTC organoids; format: cell-based; conditions: Mus musculus, 120 h
Excerpt: as §2

MIA-PaCa2 cells = assay: MIA-PaCa2 flank tumor growth in mice; format: in vivo, nude mice; conditions: for tumor growth: 1 mg/kg IP 3 times weekly vs vehicle, MIA-PaCa2 flank tumors started at 100 mm^3
Excerpt: as §2

[3] = Synergy with CDK4/6 inhibitors (FIGS. 13A-13F)
[4] = In vivo models, pyrvinium pamoate and ademaciclib (FIGS. 14A-14C)
[5] = oral tablets or suspensions; urine up to 96 hours after each dose; cited from earlier work
cyclin Dl = assay: Cyclin D1 knockdown (FIG. 12)
PDA = assay: Tumor volume, PARP inhibitor with or without shHuR; format: in vivo
Excerpt: HuR (ELAVL1) is an RNA binding protein that, upon exposure to a variety of intrinsic cancer related stressors, binds to a network of pro-survival mRNAs leading to an increase in their stability and translation. […] HuR CRISPR knockout PDA cell lines have a xenograft lethal phenotype. […] HuR is also important for oxaliplatin resistance in PDA. Utilizing a tumor microarray (TMA) from resected patient samples of PDA, it was discovered that 79% (n=80) of patients were positive for cytoplasmic HuR, with little to no cytoplasmic localization detected in adjacent normal tissues. HuR is a driver of chemoresistance in PDA and thus a prime target for re-sensitizing PDA cells to current therapies. While several compounds have been investigated as HuR inhibitors, to date there are no clinically viable HuR inhibitors.

[6] = mean of n1 and n2, read-out: Mean IC50
[7] = replicate n1, read-out: IC50, n1
[8] = replicate n2, read-out: IC50, n2

Sequence of HuR binding to target mRNA VEGF (Q15717 whole entry): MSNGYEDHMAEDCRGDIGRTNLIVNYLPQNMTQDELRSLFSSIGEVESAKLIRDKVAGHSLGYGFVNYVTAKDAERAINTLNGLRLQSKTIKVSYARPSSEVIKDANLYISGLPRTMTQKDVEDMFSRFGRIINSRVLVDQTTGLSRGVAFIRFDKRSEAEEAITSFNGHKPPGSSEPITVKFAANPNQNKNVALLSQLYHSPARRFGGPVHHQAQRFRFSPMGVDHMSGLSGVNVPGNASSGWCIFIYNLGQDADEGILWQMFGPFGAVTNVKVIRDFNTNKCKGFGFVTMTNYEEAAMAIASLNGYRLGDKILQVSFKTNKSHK
Sequence of HuR binding to target mRNA COX2 (Q15717 whole entry): as above
Sequence of COX2 DNA binding to HuR (Q15717 whole entry): as above
Sequence of VEGF DNA binding to HuR (Q15717 whole entry): as above

Compound	Mean Max % I (VEGF DNA binding to HuR) [%]	IC50 (VEGF DNA binding to HuR; [6]) [µM]	Max % I, n1 (VEGF DNA binding to HuR) [%]	IC50 (VEGF DNA binding to HuR; [7]) [µM]	Max % I, n2 (VEGF DNA binding to HuR) [%]	IC50 (VEGF DNA binding to HuR; [8]) [µM]	Mean Max % I (COX2 DNA binding to HuR) [%]	IC50 (COX2 DNA binding to HuR; [6]) [µM]	Max % I, n1 (COX2 DNA binding to HuR) [%]	IC50 (COX2 DNA binding to HuR; [7]) [µM]	Max % I, n2 (COX2 DNA binding to HuR) [%]	IC50 (COX2 DNA binding to HuR; [8]) [µM]	other results
COc1ccc(C(CC(=O)N2CCCC2)c2c(OC)cc(OC)c3c(-c4ccccc4)cc(=O)oc23)cc1 (stereo not drawn) [CMLD2]	78.7	1.29	85.6	1.28	71.9	1.3	81.6	0.674	81.1	0.593	82.1	0.767	
Cc1cccc2c3c(ccc12)C1=C(C(=O)C3=O)[C@@H](C)CO1 [DHTS]	92.9	1.5	86.5	1.07	99.2	2.12	94.0	0.599	100.0	1.08	88.1	0.332	
Nc1ccn([C@@H]2O[C@H](CO)[C@@H](O)C2(F)F)c(=O)n1 [Gemcitabine]		> 20		> 20		> 20		> 20	100.0	> 20	100.0	> 20	IC50 [1]: > 20 µM; IC50 [2]: > 20 µM
Cc1occ2c1C(=O)c1c(O)ccc(O)c1C2 [MS444]	99.8	0.016	100.0	0.015	99.5	0.017	100.0	0.033	100.0	0.033	100.0	0.032	
O=C1[O][Pt]2([NH][C@@H]3CCCC[C@H]3[NH]2)[O]C1=O [Oxaliplatin]		> 20		> 20		> 20		> 20	100.0	> 20	100.0	> 20	IC50 [1]: > 20 µM; IC50 [2]: > 20 µM
Cc1cc(/C=C/c2ccc3cc(N(C)C)ccc3[n+]2C)c(C)n1-c1ccccc1 [PP, pyrvinium pamoate]	86.8	0.149	87.2	0.187	86.5	0.118	89.3	0.198	88.8	0.34	89.8	0.115	IC50 [1]: 0.203 to 0.416 µM; IC50 [2]: 0.207 to 0.453 µM; IC50 (HS766T): 0.093 µM; IC50 (MIA-PaCa2): 0.04 µM; IC50 (Panc-1): 0.092 µM; IC50 (CFPAC): 0.021 µM; IC50 (PDX-X139): 0.009 µM; IC50 (KTC Organoids): 0.093 µM; tumor growth (MIA-PaCa2 cells): reduced tumor growth; tumor growth (MIA-PaCa2 cells; listed as pyrvinium pamoate): significant decrease; mouse weights (MIA-PaCa2 cells; 1 mg/kg IP 3 times weekly, MIA-PaCa2 tumor-bearing mice): no changes; effect with CDK4/6 inhibitors [3]: synergistic effect; efficacy in in vivo models [4]: efficacious; urine levels of pyrvinium vs the 24 hr prior to administration [5]: not significantly different; knockdown of cyclin Dl (cyclin Dl): causes a knockdown
CC(=O)O[C@H]1C(=O)[C@@]2(C)[C@H]([C@H](OC(=O)c3ccccc3)[C@]3(O)C[C@H](OC(=O)[C@H](O)[C@@H](NC(=O)c4ccccc4)c4ccccc4)C(C)=C1C3(C)C)[C@]1(OC(C)=O)CO[C@@H]1C[C@@H]2O [Paclitaxel]	78.3	5.41		5.05	74.9	5.79	83.8	2.95		2.22	84.1	3.91	
CCN1CCN(Cc2ccc(Nc3ncc(F)c(-c4cc(F)c5nc(C)n(C(C)C)c5c4)n3)nc2)CC1 [ademaciclib]													efficacy in in vivo models [4]: efficacious
O=C(c1cc(Cc2n[nH]c(=O)c3ccccc23)ccc1F)N1CCN(C(=O)C2CC2)CC1 [olaparib]													reduction in tumor volume (PDA; combined with shHuR (DOX-inducible)): 9.3 fold; reduction in tumor volume (PDA; olaparib alone): 5.6 fold
Dihydro-tashinone	100.0	7.38	100.0	6.09	100.0	8.93	100.0	5.47	100.0	4.08	100.0	7.34	
Verteporfin	74.7	0.144	77.0	0.167	72.4	0.124	92.7	0.029	92.9	0.028	92.4	0.03	
